One assay has as its target T1, UGT1A3 (Homo sapiens, UniProt P35503).
T1 sequence (P35503 29-534): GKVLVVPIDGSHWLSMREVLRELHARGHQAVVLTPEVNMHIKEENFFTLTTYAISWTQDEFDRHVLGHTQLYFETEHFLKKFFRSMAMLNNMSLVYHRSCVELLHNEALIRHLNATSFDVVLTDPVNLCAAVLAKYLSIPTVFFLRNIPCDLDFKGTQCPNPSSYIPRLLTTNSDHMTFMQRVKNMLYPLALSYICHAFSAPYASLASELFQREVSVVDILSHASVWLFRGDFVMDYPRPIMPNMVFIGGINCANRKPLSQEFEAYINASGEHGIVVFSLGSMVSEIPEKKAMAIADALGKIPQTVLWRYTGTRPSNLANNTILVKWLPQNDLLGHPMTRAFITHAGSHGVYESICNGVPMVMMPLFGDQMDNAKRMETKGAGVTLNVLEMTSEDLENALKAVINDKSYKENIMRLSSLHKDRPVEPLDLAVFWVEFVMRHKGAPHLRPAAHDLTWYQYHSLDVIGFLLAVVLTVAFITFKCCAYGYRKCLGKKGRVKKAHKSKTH
The assay is described as follows: recombinant UGT 4-MU glucuronidation, HPLC, single concentration […]. It counts as biochemical. Particulars: read-out: 1A3.

Another assay deals with T2, UGT2B7 (Homo sapiens, UniProt P16662).
T2 sequence (P16662 24-529): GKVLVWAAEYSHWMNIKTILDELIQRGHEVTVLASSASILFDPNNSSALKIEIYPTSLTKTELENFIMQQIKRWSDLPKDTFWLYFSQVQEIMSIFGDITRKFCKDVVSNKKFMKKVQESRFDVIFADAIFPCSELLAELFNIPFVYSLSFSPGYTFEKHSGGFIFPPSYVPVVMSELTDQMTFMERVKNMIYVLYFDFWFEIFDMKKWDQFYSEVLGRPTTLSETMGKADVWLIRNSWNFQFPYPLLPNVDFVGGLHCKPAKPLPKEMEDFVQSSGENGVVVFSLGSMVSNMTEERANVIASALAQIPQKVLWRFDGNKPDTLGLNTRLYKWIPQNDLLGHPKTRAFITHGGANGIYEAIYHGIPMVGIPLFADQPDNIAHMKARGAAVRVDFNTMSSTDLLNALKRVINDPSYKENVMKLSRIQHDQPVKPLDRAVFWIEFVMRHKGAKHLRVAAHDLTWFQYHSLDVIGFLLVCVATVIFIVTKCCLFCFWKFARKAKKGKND
The description is as above. Format: biochemical. Conditions: read-out: 2B7.

For `COc1cc2c(c(OC)c1OC)-c1c(cc(OC)c(OC)c1OC)C[C@H](C)[C@H](C)C2` [schisandrin A], the activity at 100 µM at UGT1A3 was 0%.

As to `COc1cc2c(c(O)c1OC)-c1c(cc(OC)c(OC)c1OC)C[C@@H](C)[C@@H](C)C2` [schisanhenol], at UGT2B7, the activity at 100 µM was 7.9%.

For the origin of these results see paper PMC6594156 (Phytotherapy research : PTR, 2015).
